Where “and” joins values, the source holds several entries; their conditions need not be identical. Equal values may be shown once.

From patent US8012963B2, “3,4-dihydro-2H-benzo[1,4]oxazine and thiazine derivatives as CETP inhibitors” (Janssen Pharmaceutica N.V., priority 2006, dated 2011) come the findings set out here.

This test addresses T1, CETP (Homo sapiens, UniProt P11597).
T1 construct: from tissue; host or cells: human plasma from normal volunteers
T1 sequence (P11597 18-493): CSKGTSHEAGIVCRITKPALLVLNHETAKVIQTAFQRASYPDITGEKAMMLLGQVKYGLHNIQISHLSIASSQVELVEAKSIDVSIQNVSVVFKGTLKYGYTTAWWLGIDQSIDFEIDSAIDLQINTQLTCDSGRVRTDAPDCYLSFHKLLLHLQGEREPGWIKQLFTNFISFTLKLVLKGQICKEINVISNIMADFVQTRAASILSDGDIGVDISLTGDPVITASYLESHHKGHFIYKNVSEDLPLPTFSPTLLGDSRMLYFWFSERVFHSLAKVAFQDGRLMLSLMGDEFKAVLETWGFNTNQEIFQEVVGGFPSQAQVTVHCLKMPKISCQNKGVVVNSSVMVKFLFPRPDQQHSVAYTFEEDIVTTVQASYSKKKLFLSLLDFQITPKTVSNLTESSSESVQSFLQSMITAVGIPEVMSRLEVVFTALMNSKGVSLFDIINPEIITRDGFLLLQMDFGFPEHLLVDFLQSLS
Kind of test: CETP in vitro assay ([3H]CE-HDL transfer, Amersham kit TRKQ7005; modified protocol in human plasma). Particulars: multiple values = multiple measurements; for inhibition at 1 µM / % Inhibition @ 1 μM: 1 μM compound. Format: biochemical. As to the method:
The CETP inhibitory activity of the compounds was determined using a commercially available kit from Amersham Biosciences (Catalog #TRKQ7005).
For the measurement of inhibitory activity in human plasma, a modified protocol (Connolly, D. T. et al., Biochemistry, 39 13870-13879, 2000) was used. Briefly, 80 μl of human plasma (obtained from normal volunteers), approximately 25 μg/ml (200) of [^3H]CE-HDL (Amersham Biosciences from kit TRKQ7005) and 1 μl of compound dissolved in DMSO was incubated for at least 4 hrs at 37° C. and non-specific transfer was determined by incubating a corresponding plate at 4° C. (blank). After the incubation period, 100 of a solution of 1% Dextralip 50/0.5M MgCl2, pH 7.4 was added, vortexed and incubated at room temperature for 10 min. The plate was then centrifuged for 30 min at 10° C. at 3000 rpm in a Sorvall RT6000B centrifuge. Fifty microliters of the supernatant was transferred to a Picoplate (Packard) containing 100 μl of Microscint 40 (Perkin Elmer) and mixed for 30 min using a plate mixer. The radioactivity was counted using a TopCount (Perkin Elmer) and the % control was determined in the samples using the following formula: % transfer relative to vehicle controls (% control)=[cpm blank-cpm test]/cpm blank/cpm control]×100. IC50s were calculated from plots of the % control versus compound concentration.
A variety of example compounds have been made and tested, with a range of in vitro results. Below, in Table 2, are representative compounds and the corresponding data; in some cases, where multiple IC50's are shown, multiple measurements were taken. Naturally, different compounds in Formula (I), (Ia), (Ib) and (Ic) may have not activities identical to any one compound below.

By inhibition is commonly meant the change of the read-out against control, counted positive when it falls. The IC50 is the concentration that gives 50% inhibition. A lower IC50 goes with higher potency. Consider `C[C@@H](O)CN1c2cccc(-c3cccc(OC(F)(F)F)c3)c2OC[C@@H]1c1cccc(OC(F)(F)C(F)F)c1` [Compound 35, 4H-1,4-Benzoxazine-4-ethanol, 2,3-dihydro-α-methyl-3-[3-(1,1,2,2-tetrafluoroethoxy)phenyl]-8-[3-(trifluoromethoxy)phenyl]-, (3S,αR)—], for which the inhibition at 1 µM is 47%; the “% Inhibition @ 1 μM” value is recorded as 52%; the concentration for half-maximal inhibition (IC50) was 26 nM and 117 nM and 121 nM.

In the case of `C=CCC1COc2c(-c3cccc(OC(F)(F)F)c3)cccc2N1CC(O)C(F)(F)F` (centres unmarked) [Compound 50, 3-[3-Allyl-8-(3-trifluoromethoxy-phenyl)-2,3-dihydro-benzo[1,4]oxazin-4-yl]-1,1,1-trifluoro-propan-2-ol], the “% Inhibition @ 1 μM” value is recorded as 10%.

For the compound `CC(C)(C)C(=O)CC1COc2c(-c3cccc(OC(F)(F)F)c3)cccc2N1CC(O)C(F)(F)F` (centres unmarked) [Compound 56, 3,3-Dimethyl-1-[4-(3,3,3-trifluoro-2-hydroxy-propyl)-8-(3-trifluoromethoxy-phenyl)-3,4-dihydro-2H-benzo[1,4]oxazin-3-yl]-butan-2-one], the “% Inhibition @ 1 μM” value is 9%.

For `COc1ccsc1C1COc2c(-c3cccc(OC(F)(F)F)c3)cccc2N1CC(O)C(F)(F)F` (centres unmarked) [Compound 60, 1,1,1-Trifluoro-3-[3-(3-methoxy-thiophen-2-yl)-8-(3-trifluoromethoxy-phenyl)-2,3-dihydro-benzo[1,4]oxazin-4-yl]-propan-2-ol], the “% Inhibition @ 1 μM” value was 0%.

For `O[C@H](CN1c2cccc(-c3cc(F)c(F)c(F)c3)c2OC[C@@H]1c1cccc(OC(F)(F)F)c1)C(F)(F)F` [Compound 83, 4H-1,4-Benzoxazine-4-ethanol, 2,3-dihydro-3-[3-(trifluoromethoxy)phenyl]-8-[3,4,5-(trifluoro)phenyl]-α-(trifluoromethyl)-, (3S,αR)—], the inhibition at 1 µM was determined as 29%.

For the compound `OC(CN1c2cccc(-c3cccc(OC(F)(F)F)c3)c2OCC1c1ccccc1)C(F)(F)F` (centres unmarked) [Compound 95, 1,1,1-Trifluoro-3-[3-phenyl-8-(3-trifluoromethoxy-phenyl)-2,3-dihydro-benzo[1,4]oxazin-4-yl]-propan-2-ol], the “% Inhibition @ 1 μM” value is 43%.

In the case of `COC(=O)NCCN1c2cccc(-c3cccc(OC(F)(F)F)c3)c2OCC1c1cccc(OC(F)(F)C(F)F)c1` (centres unmarked) [Compound 41, {2-[3-[3-(1,1,2,2-Tetrafluoro-ethoxy)-phenyl]-8-(3-trifluoromethoxy-phenyl)-2,3-dihydro-benzo[1,4]oxazin-4-yl]-ethyl}-carbamic acid methyl ester], the inhibition at 1 µM worked out at 2%.

Regarding `CN(CCN1c2cccc(-c3cccc(OC(F)(F)F)c3)c2OCC1c1cccc(OC(F)(F)C(F)F)c1)S(C)(=O)=O` (centres unmarked) [Compound 44, N-Methyl-N-{2-[3-[3-(1,1,2,2-tetrafluoro-ethoxy)-phenyl]-8-(3-trifluoromethoxy-phenyl)-2,3-dihydro-benzo[1,4]oxazin-4-yl]-ethyl}-methanesulfonamide], the inhibition at 1 µM is 0%.

For the compound `CC(C)(C)[Si](C)(C)OCCN1c2cccc(-c3cccc(OC(F)(F)F)c3)c2OCC1c1cccc(OC(F)(F)C(F)F)c1` (centres unmarked) [Compound 22, 4-[2-(tert-Butyl-dimethyl-silanyloxy)-ethyl]-3-[3-(1,1,2,2-tetrafluoro-ethoxy)-phenyl]-8-(3-trifluoromethoxy-phenyl)-3,4-dihydro-2H-benzo[1,4]oxazine], the inhibition at 1 µM came to 13%.

As to `OCCCC1COc2c(-c3cccc(OC(F)(F)F)c3)cccc2N1CC(O)C(F)(F)F` (centres unmarked) [Compound 54, 3-[4-(3,3,3-Trifluoro-2-hydroxy-propyl)-8-(3-trifluoromethoxy-phenyl)-3,4-dihydro-2H-benzo[1,4]oxazin-3-yl]-propan-1-ol], the “% Inhibition @ 1 μM” value is on record as 1%.

Take `CC(=O)NCCN1c2cccc(-c3cccc(OC(F)(F)F)c3)c2OCC1c1cccc(OC(F)(F)C(F)F)c1` (centres unmarked) [Compound 40, N-{2-[3-[3-(1,1,2,2-Tetrafluoro-ethoxy)-phenyl]-8-(3-trifluoromethoxy-phenyl)-2,3-dihydro-benzo[1,4]oxazin-4-yl]-ethyl}-acetamide]: the inhibition at 1 µM was 0%.

As to `COC(=O)N1c2cccc(-c3cccc(OC(F)(F)F)c3)c2OCC1c1cccc(OC(F)(F)C(F)F)c1` (centres unmarked) [Compound 20, 3-[3-(1,1,2,2-Tetrafluoro-ethoxy)-phenyl]-8-(3-trifluoromethoxy-phenyl)-2,3-dihydro-benzo[1,4]oxazine-4-carboxylic acid methyl ester], the inhibition at 1 µM was found to be 16%.

For `CCOC(=O)N1c2cccc(-c3cccc(OC(F)(F)F)c3)c2OCC1c1cccc(OC(F)(F)C(F)F)c1` (centres unmarked) [Compound 21, 3-[3-(1,1,2,2-Tetrafluoro-ethoxy)-phenyl]-8-(3-trifluoromethoxy-phenyl)-2,3-dihydro-benzo[1,4]oxazine-4-carboxylic acid ethyl ester], the inhibition at 1 µM was 2%.

In the case of `CN1CCN(CCN2c3cccc(-c4cccc(OC(F)(F)F)c4)c3OCC2c2cccc(OC(F)(F)C(F)F)c2)CC1` (centres unmarked) [Compound 31, 4-[2-(4-Methyl-piperazin-1-yl)-ethyl]-3-[3-(1,1,2,2-tetrafluoro-ethoxy)-phenyl]-8-(3-trifluoromethoxy-phenyl)-3,4-dihydro-2H-benzo[1,4]oxazine], the inhibition at 1 µM was determined as 17%.

`OC(CN1c2cccc(-c3cccc(OC(F)(F)F)c3)c2OCC1c1ccccc1OC(F)(F)C(F)F)C(F)(F)F` (centres unmarked) [Compound 92, 1,1,1-Trifluoro-3-[3-[2-(1,1,2,2-tetrafluoro-ethoxy)-phenyl]-8-(3-trifluoromethoxy-phenyl)-2,3-dihydro-benzo[1,4]oxazin-4-yl]-propan-2-ol]: the “% Inhibition @ 1 μM” value was 1%.

Take `OC(CN1c2cccc(-c3cccc(OC(F)(F)F)c3)c2OCC1c1ccoc1)C(F)(F)F` (centres unmarked) [Compound 106, 1,1,1-Trifluoro-3-[3-furan-3-yl-8-(3-trifluoromethoxy-phenyl)-2,3-dihydro-benzo[1,4]oxazin-4-yl]-propan-2-ol]: the “% Inhibition @ 1 μM” value is recorded as 0%.

For the compound `O[C@@H](CN1c2cccc(-c3cc(F)c(F)c(F)c3)c2OC[C@@H]1c1cccc(OC(F)(F)C(F)F)c1)C(F)(F)F` [Compound 76, 4H-1,4-Benzoxazine-4-ethanol, 2,3-dihydro-3-[3-(1,1,2,2-tetrafluoroethoxy)phenyl]-8-[3,4,5-trifluoro-phenyl]-α-(trifluoromethyl)-, (3S,αS)—], the inhibition at 1 µM was 106%, the “% Inhibition @ 1 μM” value came to 101% and 41 nM corresponded to half-maximal inhibition (IC50).

Take `C=CCC1COc2c(-c3cccc(OC(F)(F)F)c3)cccc2N1CC(O)C(F)(F)F` (centres unmarked) [Compound 51, 3-[3-Allyl-8-(3-trifluoromethoxy-phenyl)-2,3-dihydro-benzo[1,4]oxazin-4-yl]-1,1,1-trifluoro-propan-2-ol]: the “% Inhibition @ 1 μM” value came to 0%.

`OCCN1c2cccc(-c3cccc(OC(F)(F)F)c3)c2OCC1c1cccc(OC(F)(F)C(F)F)c1` (centres unmarked) [Compound 23, 2-[3-[3-(1,1,2,2-Tetrafluoro-ethoxy)-phenyl]-8-(3-trifluoromethoxy-phenyl)-2,3-dihydro-benzo[1,4]oxazin-4-yl]-ethanol]: the inhibition at 1 µM came to 29%.
